According to patent US11638427B2, “Methods and compositions for altering secondary metabolites in plants” (Impello Biosciences, Inc, priority 2020, dated 2023):
Where “and” joins values, the source holds several entries; their conditions need not be identical. Identical values can stand only once.

Tested on: CBDRx Cherry hemp clones
Assay: Foliar spray of MS, MDJ and MS+MDJ on hemp clones: biomass, cannabinoid and terpene analysis
Type: in vivo, Cannabis spp.
Design: CBDA / CBD / THCA / Total CBG / Total cannabinoids: unit not given here
Conditions: for plants died before the end of the experiment: four plants per treatment group
Protocol: Methyl salicylate (MS) is an antagonistic compound to the jasmonates. To investigate the effect of MS alone and in conjunction with MDJ, MS (CAS No.: 119-36-8), MDJ, and the combination (MS+MDJ) were applied by foliar spray to CBDRx Cherry hemp clones once per week during both vegetative and flowering phases. Plants were transplanted into 1-gallon pots with Red's soil and put into vegetative light cycle (18L/6D). […] Plants were grown under a total of 12 Boost (Thrive Agritech, NY) 130-watt LED lights set to 18L: 6D photoperiod during the vegetative phase (2 weeks) and this was followed by a 12L: 12D photoperiod during the flowering phase (7 weeks), using the same lighting fixtures. Throughout the nine weeks, all plants were watered when needed with Jack's nutrients.
MS or MDJ treatments were applied at the following concentrations: [1 mM], [4.25 mM], [7.5 mM] and [10 mM]. Each concentration was prepared from a one molar stock solution diluted with RO water and TWEEN®-20 (1M stock) was added. Each plant was sprayed till dripping, which was approximately 50-75 ml. To apply the combination of the two biochemicals, MS and MDJ were sprayed separately but simultaneously, to ensure each compound was applied evenly onto the plant. Each compound was applied using a SPRAYMASTER Chemical Sprayer (King of Prussia, Pa.).
Plants were harvested two months after transplant. After harvesting, plants were air dried at room temperature for two weeks. Once plants were sufficiently dry, above ground dry weights were recorded and dried flower samples were collected and sent to a third-party lab for terpene and cannabinoid analysis. Two plants (#3 and #4) in treatment group MDJ [7.5] mM, two plants (#3 and #4) in MS [4.25] mM, one plant (#4) in MS [7.5], and one plant (#4) in MDJ [10] died before the end of the experiment.

[1] = 1 mM foliar spray, Avg. of group
[2] = 1 mM foliar spray, individual plant
[3] = 4.25 mM foliar spray, Avg. of group
[4] = 4.25 mM foliar spray, individual plant
[5] = 7.5 mM foliar spray, Avg. of group
[6] = 7.5 mM foliar spray, individual plant
[7] = 10 mM foliar spray, Avg. of group
[8] = 10 mM foliar spray, individual plant

Q: What does the source list for `COC(=O)c1ccccc1O` [MS, Methyl salicylate]?
A: Alpha-bisabolol [1]: 0.08263 % wt/wt; Alpha-humulene [1]: 0.07955 % wt/wt; Beta-caryophyllene [1]: 0.2069 % wt/wt; CBCA [1]: 0.715; CBD [1]: 0.105; CBDA [1]: 13.675; CBGA [1]: 0.365; Limonene [1]: 0.1101 % wt/wt; THCA [1]: 0.6; Total CBD [1]: 12.1025; Total CBG [1]: 0.32; Total cannabinoids [1]: 15.46; Total d9THC [1]: 0.525; alpha-pinene [1]: 0 % wt/wt; beta-myrcene [1]: 0.8188 % wt/wt; beta-pinene [1]: 0.02077 % wt/wt; total terpenes [1]: 1.435 % wt/wt; Alpha-bisabolol [2]: 0.0925 % wt/wt and 0.1053 % wt/wt and 0.1236 % wt/wt and 0.00912 % wt/wt; Alpha-humulene [2]: 0.076 % wt/wt and 0.0724 % wt/wt and 0.0922 % wt/wt and 0.0776 % wt/wt; Beta-caryophyllene [2]: 0.1974 % wt/wt and 0.1911 % wt/wt and 0.243 % wt/wt and 0.1959 % wt/wt; CBCA [2]: 0.82 and 0.64 and 0.67 and 0.73; CBD [2]: 0.13 and 0 and 0.12 and 0.17; CBDA [2]: 15.19 and 12.85 and 13.24 and 13.42; CBGA [2]: 0.42 and 0.34 and 0.32 and 0.38; Limonene [2]: 0.1096 % wt/wt and 0.11 % wt/wt and 0.1101 % wt/wt and 0.1106 % wt/wt; THCA [2]: 0.66 and 0.56 and 0.58 and 0.6; Total CBD [2]: 13.45 and 11.27 and 11.74 and 11.95; Total CBG [2]: 0.37 and 0.3 and 0.28 and 0.33; Total cannabinoids [2]: 17.22 and 14.39 and 14.93 and 15.3; Total d9THC [2]: 0.58 and 0.49 and 0.51 and 0.52; alpha-pinene [2]: 0 % wt/wt; beta-myrcene [2]: 0.7692 % wt/wt and 0.8926 % wt/wt and 0.845 % wt/wt and 0.7684 % wt/wt; beta-pinene [2]: 0.0215 % wt/wt and 0.0201 % wt/wt and 0.021 % wt/wt and 0.0205 % wt/wt; total terpenes [2]: 1.36 % wt/wt (2×) and 1.48 % wt/wt and 1.54 % wt/wt; Alpha-bisabolol [3]: 0.1143 % wt/wt; Alpha-humulene [3]: 0.0794 % wt/wt; Beta-caryophyllene [3]: 0.1996 % wt/wt; CBCA [3]: 0.61; CBD [3]: 0.16; CBDA [3]: 11.8; CBGA [3]: 0.275; Limonene [3]: 0.1 % wt/wt; THCA [3]: 0.51; Total CBD [3]: 10.505; Total CBG [3]: 0.24; Total cannabinoids [3]: 13.355; Total d9THC [3]: 0.45; alpha-pinene [3]: 0 % wt/wt; beta-myrcene [3]: 0.7751 % wt/wt; beta-pinene [3]: 0.0197 % wt/wt; total terpenes [3]: 1.38 % wt/wt; plants died before the end of the experiment (4.25 mM foliar spray): two plants; Alpha-bisabolol [4]: 0.1185 % wt/wt and 0.1101 % wt/wt; Alpha-humulene [4]: 0.0819 % wt/wt and 0.0769 % wt/wt; Beta-caryophyllene [4]: 0.2091 % wt/wt and 0.19 % wt/wt; CBCA [4]: 0.61; CBD [4]: 0.15 and 0.17; CBDA [4]: 11.88 and 11.72; CBGA [4]: 0.27 and 0.28; Limonene [4]: 0.1042 % wt/wt and 0.0958 % wt/wt; THCA [4]: 0.52 and 0.5; Total CBD [4]: 10.57 and 10.44; Total CBG [4]: 0.24; Total cannabinoids [4]: 13.43 and 13.28; Total d9THC [4]: 0.46 and 0.44; alpha-pinene [4]: 0 % wt/wt; beta-myrcene [4]: 0.8061 % wt/wt and 0.744 % wt/wt; beta-pinene [4]: 0.0209 % wt/wt and 0.0185 % wt/wt; total terpenes [4]: 1.43 % wt/wt and 1.33 % wt/wt; Alpha-bisabolol [5]: 0.1235 % wt/wt; Alpha-humulene [5]: 0.09093 % wt/wt; Beta-caryophyllene [5]: 0.23 % wt/wt; CBCA [5]: 0.66; CBD [5]: 0.1833; CBDA [5]: 12.833; CBGA [5]: 0.41; Limonene [5]: 0.09533 % wt/wt; THCA [5]: 0.57; Total CBD [5]: 11.44; Total CBG [5]: 0.356; Total cannabinoids [5]: 14.656; Total d9THC [5]: 0.5; alpha-pinene [5]: 0 % wt/wt; beta-myrcene [5]: 0.7014 % wt/wt; beta-pinene [5]: 0 % wt/wt; total terpenes [5]: 1.343 % wt/wt; plants died before the end of the experiment (7.5 mM foliar spray): one plant; Alpha-bisabolol [6]: 0.1154 % wt/wt and 0.1201 % wt/wt and 0.1349 % wt/wt; Alpha-humulene [6]: 0.0878 % wt/wt and 0.083 % wt/wt and 0.102 % wt/wt; Beta-caryophyllene [6]: 0.2204 % wt/wt and 0.2101 % wt/wt and 0.2595 % wt/wt; CBCA [6]: 0.68 (2×) and 0.62; CBD [6]: 0.3 and 0.1 and 0.15; CBDA [6]: 12.97 and 12.23 and 13.3; CBGA [6]: 0.4 and 0.37 and 0.46; Limonene [6]: 0.0902 % wt/wt and 0.0968 % wt/wt and 0.099 % wt/wt; THCA [6]: 0.57 and 0.55 and 0.59; Total CBD [6]: 11.68 and 10.83 and 11.81; Total CBG [6]: 0.35 and 0.32 and 0.4; Total cannabinoids [6]: 14.92 and 13.87 and 15.18; Total d9THC [6]: 0.5 and 0.48 and 0.52; alpha-pinene [6]: 0 % wt/wt; beta-myrcene [6]: 0.6564 % wt/wt and 0.7151 % wt/wt and 0.7328 % wt/wt; beta-pinene [6]: 0 % wt/wt; total terpenes [6]: 1.27 % wt/wt and 1.32 % wt/wt and 1.44 % wt/wt; Alpha-bisabolol [7]: 0.109 % wt/wt; Alpha-humulene [7]: 0.07612 % wt/wt; Beta-caryophyllene [7]: 0.1899 % wt/wt; CBCA [7]: 0.73; CBD [7]: 0.155; CBDA [7]: 14.5975; CBGA [7]: 0.4775; Limonene [7]: 0.1418 % wt/wt; THCA [7]: 0.625; Total CBD [7]: 12.96; Total CBG [7]: 0.42; Total cannabinoids [7]: 16.585; Total d9THC [7]: 0.55; alpha-pinene [7]: 0.01702 % wt/wt; beta-myrcene [7]: 1.084 % wt/wt; beta-pinene [7]: 0.02447 % wt/wt; total terpenes [7]: 1.725 % wt/wt; Alpha-bisabolol [8]: 0.1326 % wt/wt and 0.0981 % wt/wt and 0.1139 % wt/wt and 0.0915 % wt/wt; Alpha-humulene [8]: 0.0912 % wt/wt and 0.0723 % wt/wt and 0.0736 % wt/wt and 0.0674 % wt/wt; Beta-caryophyllene [8]: 0.2182 % wt/wt and 0.1794 % wt/wt and 0.192 % wt/wt and 0.1699 % wt/wt; CBCA [8]: 0.71 and 0.73 and 0.72 and 0.76; CBD [8]: 0.17 and 0.12 and 0.33 and 0; CBDA [8]: 15.33 and 14.37 and 13.89 and 14.8; CBGA [8]: 0.5 (2×) and 0.46 and 0.45; Limonene [8]: 0.213 % wt/wt and 0.1272 % wt/wt and 0.113 % wt/wt and 0.1141 % wt/wt; THCA [8]: 0.65 and 0.63 (2×) and 0.59; Total CBD [8]: 13.61 and 12.73 and 12.52 and 12.98; Total CBG [8]: 0.44 (2×) and 0.4 (2×); Total cannabinoids [8]: 17.36 and 16.31 and 15.98 and 16.69; Total d9THC [8]: 0.57 and 0.55 and 0.52 and 0.56; alpha-pinene [8]: 0.0398 % wt/wt and 0.0283 % wt/wt and 0 % wt/wt (2×); beta-myrcene [8]: 1.6091 % wt/wt and 0.9913 % wt/wt and 0.8332 % wt/wt and 0.9015 % wt/wt; beta-pinene [8]: 0.0299 % wt/wt and 0.023 % wt/wt and 0.0257 % wt/wt and 0.0193 % wt/wt; total terpenes [8]: 2.43 % wt/wt and 1.6 % wt/wt and 1.43 % wt/wt and 1.44 % wt/wt; total terpene content (application of 1 mM or 4.25 mM): increased; Aboveground fresh weight and dried weight compared to the control plants (at both 1 mM and 10 mM): significantly reduced
